Here are results for eleven compounds from US10481149B2.

Read-outs that look alike come from different tables or passages of the source.

In data set [1] the target is BSEP (Homo sapiens, UniProt O95342). The data set can be described thus: in vitro.
The target in data set [2] is T1, BSEP (Canis lupus familiaris, UniProt B8K1W2).
T1 sequence (B8K1W2 1-1325): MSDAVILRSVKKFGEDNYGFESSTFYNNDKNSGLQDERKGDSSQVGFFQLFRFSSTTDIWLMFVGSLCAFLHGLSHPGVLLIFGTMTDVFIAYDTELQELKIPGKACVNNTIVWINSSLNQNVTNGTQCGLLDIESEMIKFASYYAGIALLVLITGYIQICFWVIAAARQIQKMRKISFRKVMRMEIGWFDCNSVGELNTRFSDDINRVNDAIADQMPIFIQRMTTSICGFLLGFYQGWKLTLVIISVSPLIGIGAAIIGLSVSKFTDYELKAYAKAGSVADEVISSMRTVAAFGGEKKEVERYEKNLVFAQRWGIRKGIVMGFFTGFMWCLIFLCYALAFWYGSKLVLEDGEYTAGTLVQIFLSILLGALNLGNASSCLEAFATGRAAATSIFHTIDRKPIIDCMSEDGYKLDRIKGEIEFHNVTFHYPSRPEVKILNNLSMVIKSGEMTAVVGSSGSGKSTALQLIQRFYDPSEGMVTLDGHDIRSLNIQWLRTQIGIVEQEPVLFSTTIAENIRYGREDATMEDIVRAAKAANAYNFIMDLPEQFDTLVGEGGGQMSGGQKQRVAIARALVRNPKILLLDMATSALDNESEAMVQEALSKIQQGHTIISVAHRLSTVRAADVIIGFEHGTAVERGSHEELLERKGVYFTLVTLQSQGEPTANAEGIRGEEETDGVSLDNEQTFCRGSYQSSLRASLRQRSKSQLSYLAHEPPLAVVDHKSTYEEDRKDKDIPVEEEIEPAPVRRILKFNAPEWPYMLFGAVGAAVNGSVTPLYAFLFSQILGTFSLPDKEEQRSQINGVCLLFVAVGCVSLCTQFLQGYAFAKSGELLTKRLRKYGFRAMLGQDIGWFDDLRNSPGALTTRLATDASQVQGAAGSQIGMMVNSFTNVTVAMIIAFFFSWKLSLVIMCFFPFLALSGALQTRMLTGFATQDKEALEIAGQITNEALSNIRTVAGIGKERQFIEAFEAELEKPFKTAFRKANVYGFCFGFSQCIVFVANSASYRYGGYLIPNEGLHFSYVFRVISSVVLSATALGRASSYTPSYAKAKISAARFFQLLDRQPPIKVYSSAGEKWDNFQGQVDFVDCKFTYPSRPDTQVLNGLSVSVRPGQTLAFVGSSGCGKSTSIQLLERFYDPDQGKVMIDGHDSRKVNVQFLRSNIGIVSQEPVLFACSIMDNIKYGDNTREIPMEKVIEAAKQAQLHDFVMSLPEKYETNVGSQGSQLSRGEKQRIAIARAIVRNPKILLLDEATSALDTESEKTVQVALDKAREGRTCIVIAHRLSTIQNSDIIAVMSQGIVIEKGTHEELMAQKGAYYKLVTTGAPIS
Briefly: Inhibition of BSEP activity (transport of taurocholate) in dog hepatocytes.

Data set [3] concerns the target T2, BSEP (Mus musculus, UniProt Q9QY30).
T2 sequence (Q9QY30 1-1321): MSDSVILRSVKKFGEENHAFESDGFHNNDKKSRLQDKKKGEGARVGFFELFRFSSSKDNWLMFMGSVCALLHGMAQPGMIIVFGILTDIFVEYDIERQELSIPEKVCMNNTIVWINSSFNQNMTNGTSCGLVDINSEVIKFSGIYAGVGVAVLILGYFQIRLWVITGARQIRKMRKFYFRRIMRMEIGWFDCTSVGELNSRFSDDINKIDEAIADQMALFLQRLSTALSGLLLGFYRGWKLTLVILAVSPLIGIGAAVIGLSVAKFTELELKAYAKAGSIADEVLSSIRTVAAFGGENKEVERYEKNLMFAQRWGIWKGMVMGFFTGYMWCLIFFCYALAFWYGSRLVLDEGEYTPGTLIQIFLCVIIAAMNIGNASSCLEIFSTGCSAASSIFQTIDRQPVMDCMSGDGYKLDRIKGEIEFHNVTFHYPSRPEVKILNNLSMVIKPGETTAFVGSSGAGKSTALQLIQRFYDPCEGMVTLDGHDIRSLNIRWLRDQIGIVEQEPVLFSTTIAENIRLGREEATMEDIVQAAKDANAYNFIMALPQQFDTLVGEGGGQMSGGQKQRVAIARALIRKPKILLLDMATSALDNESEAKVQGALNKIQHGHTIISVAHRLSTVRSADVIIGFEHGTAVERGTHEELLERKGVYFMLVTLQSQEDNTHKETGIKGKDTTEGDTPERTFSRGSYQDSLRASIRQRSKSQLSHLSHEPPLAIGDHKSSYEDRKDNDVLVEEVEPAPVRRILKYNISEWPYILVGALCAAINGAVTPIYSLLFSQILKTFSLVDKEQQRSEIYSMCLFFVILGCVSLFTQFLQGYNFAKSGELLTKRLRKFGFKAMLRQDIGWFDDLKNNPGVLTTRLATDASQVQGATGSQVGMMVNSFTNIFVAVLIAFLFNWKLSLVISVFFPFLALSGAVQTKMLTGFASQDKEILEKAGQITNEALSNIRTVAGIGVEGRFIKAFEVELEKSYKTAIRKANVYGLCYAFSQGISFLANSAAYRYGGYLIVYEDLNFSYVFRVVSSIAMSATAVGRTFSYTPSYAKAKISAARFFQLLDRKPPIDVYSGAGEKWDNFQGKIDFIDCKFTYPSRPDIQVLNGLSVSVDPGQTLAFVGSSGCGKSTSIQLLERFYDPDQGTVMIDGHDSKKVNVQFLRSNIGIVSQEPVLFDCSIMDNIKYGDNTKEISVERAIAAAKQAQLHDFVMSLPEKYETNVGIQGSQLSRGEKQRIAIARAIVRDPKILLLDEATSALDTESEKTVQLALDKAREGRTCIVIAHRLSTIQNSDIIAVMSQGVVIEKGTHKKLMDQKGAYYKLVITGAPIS
Briefly: Inhibition of BSEP activity (transport of taurocholate) in mouse hepatocytes.

The target of data set [4] is BSEP (Macaca fascicularis, UniProt D2CFL3). Briefly: in vitro. The conditions noted are these: monkey, hepatocytes in suspension, probe glycocholate.
Chain of BSEP (Macaca fascicularis, UniProt D2CFL3) (D2CFL3 1-1323): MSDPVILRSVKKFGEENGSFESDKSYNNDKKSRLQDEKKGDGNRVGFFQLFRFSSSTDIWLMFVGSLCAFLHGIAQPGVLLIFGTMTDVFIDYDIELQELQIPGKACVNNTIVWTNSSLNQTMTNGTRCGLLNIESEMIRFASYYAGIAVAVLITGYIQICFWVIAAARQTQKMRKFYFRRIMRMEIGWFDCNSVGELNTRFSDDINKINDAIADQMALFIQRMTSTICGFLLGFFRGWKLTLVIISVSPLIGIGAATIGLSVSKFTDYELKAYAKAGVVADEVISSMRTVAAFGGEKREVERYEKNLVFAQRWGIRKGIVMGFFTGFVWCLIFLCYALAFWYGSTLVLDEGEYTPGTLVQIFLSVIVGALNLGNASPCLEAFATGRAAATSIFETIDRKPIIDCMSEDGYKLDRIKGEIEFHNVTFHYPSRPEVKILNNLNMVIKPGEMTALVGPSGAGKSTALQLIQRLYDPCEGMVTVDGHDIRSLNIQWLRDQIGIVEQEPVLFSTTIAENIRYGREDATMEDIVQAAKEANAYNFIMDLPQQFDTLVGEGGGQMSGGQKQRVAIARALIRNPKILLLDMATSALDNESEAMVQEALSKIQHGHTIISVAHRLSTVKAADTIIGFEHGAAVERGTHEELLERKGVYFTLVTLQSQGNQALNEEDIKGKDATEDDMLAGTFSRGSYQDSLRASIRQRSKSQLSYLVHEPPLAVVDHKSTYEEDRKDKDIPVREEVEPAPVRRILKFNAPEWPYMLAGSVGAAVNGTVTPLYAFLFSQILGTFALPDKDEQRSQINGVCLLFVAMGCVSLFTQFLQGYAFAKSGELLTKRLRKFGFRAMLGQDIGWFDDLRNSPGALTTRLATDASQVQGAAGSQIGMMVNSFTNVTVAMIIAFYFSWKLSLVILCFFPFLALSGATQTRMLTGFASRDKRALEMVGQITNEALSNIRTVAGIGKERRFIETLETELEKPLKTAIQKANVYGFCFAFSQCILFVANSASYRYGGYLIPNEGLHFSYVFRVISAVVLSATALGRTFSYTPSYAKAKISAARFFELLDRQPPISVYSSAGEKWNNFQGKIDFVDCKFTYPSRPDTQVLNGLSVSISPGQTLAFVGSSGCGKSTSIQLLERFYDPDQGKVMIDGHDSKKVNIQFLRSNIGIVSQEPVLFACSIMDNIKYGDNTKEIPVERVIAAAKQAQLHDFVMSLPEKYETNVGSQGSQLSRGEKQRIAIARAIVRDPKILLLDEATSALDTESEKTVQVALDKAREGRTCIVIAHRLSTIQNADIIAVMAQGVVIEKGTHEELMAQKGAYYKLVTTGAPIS
[5] abbreviates: hepatocytes in suspension, probe glycocholate.
[6] abbreviates: hepatocytes in suspension, probe taurocholate.

Chain of BSEP (Homo sapiens, UniProt O95342) (O95342 whole entry): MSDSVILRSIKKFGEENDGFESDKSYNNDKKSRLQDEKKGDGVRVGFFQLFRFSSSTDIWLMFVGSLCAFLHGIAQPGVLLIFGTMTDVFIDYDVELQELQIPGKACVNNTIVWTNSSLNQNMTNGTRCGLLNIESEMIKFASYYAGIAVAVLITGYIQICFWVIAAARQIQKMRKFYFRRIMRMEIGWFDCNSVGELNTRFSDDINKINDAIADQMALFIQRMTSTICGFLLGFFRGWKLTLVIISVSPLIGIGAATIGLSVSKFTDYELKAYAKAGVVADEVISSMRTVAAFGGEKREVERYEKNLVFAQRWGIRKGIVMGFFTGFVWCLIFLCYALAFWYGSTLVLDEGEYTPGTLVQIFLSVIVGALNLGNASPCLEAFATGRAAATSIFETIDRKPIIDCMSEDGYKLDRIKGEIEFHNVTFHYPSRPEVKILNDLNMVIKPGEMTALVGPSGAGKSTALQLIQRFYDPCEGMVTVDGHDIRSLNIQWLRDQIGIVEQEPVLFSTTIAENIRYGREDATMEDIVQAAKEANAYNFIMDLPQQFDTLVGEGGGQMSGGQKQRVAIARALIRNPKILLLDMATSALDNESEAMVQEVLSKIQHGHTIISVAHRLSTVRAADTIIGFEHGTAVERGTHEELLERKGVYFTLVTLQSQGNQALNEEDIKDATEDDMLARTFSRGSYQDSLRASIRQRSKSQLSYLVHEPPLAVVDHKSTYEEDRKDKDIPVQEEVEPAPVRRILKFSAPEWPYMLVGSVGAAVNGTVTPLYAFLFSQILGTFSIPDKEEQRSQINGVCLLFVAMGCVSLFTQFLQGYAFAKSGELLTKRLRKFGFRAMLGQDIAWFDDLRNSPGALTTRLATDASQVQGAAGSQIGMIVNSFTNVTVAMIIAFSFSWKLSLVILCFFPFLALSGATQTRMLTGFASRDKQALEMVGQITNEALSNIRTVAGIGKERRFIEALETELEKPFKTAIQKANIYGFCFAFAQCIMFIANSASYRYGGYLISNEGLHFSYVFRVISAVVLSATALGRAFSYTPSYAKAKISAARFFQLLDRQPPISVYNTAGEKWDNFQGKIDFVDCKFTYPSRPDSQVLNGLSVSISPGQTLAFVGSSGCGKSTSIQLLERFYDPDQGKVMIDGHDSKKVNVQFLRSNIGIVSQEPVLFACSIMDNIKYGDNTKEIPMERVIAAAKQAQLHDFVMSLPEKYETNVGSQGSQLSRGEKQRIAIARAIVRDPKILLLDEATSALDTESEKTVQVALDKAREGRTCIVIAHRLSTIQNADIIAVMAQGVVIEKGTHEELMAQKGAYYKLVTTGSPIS

Usually inhibition stands for the share of the control response that was lost under treatment. Higher therefore signals a strong effect. Turning to `COC(=O)N[C@H](C(=O)N[C@@H](Cc1ccccc1)[C@@H](O)CN(Cc1ccc(-c2ccccn2)cc1)NC(=O)[C@@H](NC(=O)OC)C(C)(C)C)C(C)(C)C` [Atazanavir, atazanavir], the inhibition at 1 h, 1 μM against BSEP [1] (setting [5]), at BSEP [2] (setting [6]), against BSEP [3] (setting [6]) and on BSEP [4] was < 50% each time. The inhibition at 1 h, 10 μM at BSEP [1] (setting [5]) was > 50%; against BSEP [2] (setting [6]), > 50%; against BSEP [3] (setting [6]), < 50%; against BSEP [4], > 50%.

With `C[C@@H](Oc1cc(-c2cnn(C3CCNCC3)c2)cnc1N)c1c(Cl)ccc(F)c1Cl` [Crizotinib, crizotinib], the inhibition at 1 h, 1 μM against BSEP [1] (setting [5]), on BSEP [2] (setting [6]), against BSEP [3] (setting [6]) and at BSEP [4] was < 50% each time. Moreover, the inhibition at 1 h, 10 μM at BSEP [1] (setting [5]) is > 50%; at BSEP [2] (setting [6]), > 50%; on BSEP [3] (setting [6]), < 50%; at BSEP [4] it was < 50%.

In the case of `OC(Cn1cncn1)(Cn1cncn1)c1ccc(F)cc1F` [Fluconazole, fluconazole], the inhibition at 1 h, 1 μM on BSEP [1] (setting [5]), against BSEP [2] (setting [6]), at BSEP [3] (setting [6]) and against BSEP [4] was < 50% throughout. Besides, the inhibition at 1 h, 10 μM against BSEP [1] (setting [5]), on BSEP [2] (setting [6]), against BSEP [3] (setting [6]) and against BSEP [4] was < 50% throughout.

On to `CC(=O)N1CCN(c2ccc(OCC3COC(Cn4ccnc4)(c4ccc(Cl)cc4Cl)O3)cc2)CC1` (stereo not shown) [Ketoconazole, ketoconazole], for which the inhibition at 1 h, 1 μM against BSEP [1] (setting [5]), against BSEP [2] (setting [6]), on BSEP [3] (setting [6]) and against BSEP [4] was < 50% throughout. The inhibition at 1 h, 10 μM is < 50% against BSEP [1] (setting [5]), < 50% against BSEP [2] (setting [6]), < 50% at BSEP [3] (setting [6]) and > 50% against BSEP [4].

As to `Cc1c(O)cccc1C(=O)N[C@@H](CSc1ccccc1)[C@H](O)CN1C[C@H]2CCCC[C@H]2C[C@H]1C(=O)NC(C)(C)C` [Nelfinavir, nelfinavir], the inhibition at 1 h, 1 μM against BSEP [1] (setting [5]), at BSEP [2] (setting [6]), on BSEP [3] (setting [6]) and on BSEP [4] was < 50% throughout. The inhibition at 1 h, 10 μM was > 50% against BSEP [1] (setting [5]), > 50% against BSEP [2] (setting [6]), < 50% on BSEP [3] (setting [6]) and > 50% against BSEP [4].

`CC(C)NCC(O)COc1cccc2ccccc12` (stereo not shown) [Propranolol, propranolol]: the inhibition at 1 h, 1 μM on BSEP [1] (setting [5]), against BSEP [2] (setting [6]), on BSEP [3] (setting [6]) and at BSEP [4] was < 50% each time. Moreover, the inhibition at 1 h, 10 μM on BSEP [1] (setting [5]), at BSEP [2] (setting [6]), on BSEP [3] (setting [6]) and against BSEP [4] was < 50% in each case.

As to `O=c1c(O)c(-c2ccc(O)c(O)c2)oc2cc(O)cc(O)c12` [Quercetin, quercetin], the inhibition at 1 h, 1 μM against BSEP [1] (setting [5]), at BSEP [2] (setting [6]), on BSEP [3] (setting [6]) and at BSEP [4] was < 50% throughout. Moreover, the inhibition at 1 h, 10 μM against BSEP [1] (setting [5]) was < 50%; against BSEP [2] (setting [6]), > 50%; against BSEP [3] (setting [6]), < 50%; against BSEP [4] it was < 50%.

On to `C=C[C@H]1C[N@@]2CC[C@H]1C[C@@H]2[C@@H](O)c1ccnc2ccc(OC)cc12` [Quinidine, quinidine], for which the inhibition at 1 h, 1 μM against BSEP [1] (setting [5]), at BSEP [2] (setting [6]), against BSEP [3] (setting [6]) and against BSEP [4] was < 50% in each case. The inhibition at 1 h, 10 μM at BSEP [1] (setting [5]), on BSEP [2] (setting [6]), against BSEP [3] (setting [6]) and against BSEP [4] was < 50% each time.

Turning to `S=P(N1CC1)(N1CC1)N1CC1` [Thiotepa, thiotepa], the inhibition at 1 h, 1 μM at BSEP [1], against BSEP [2], at BSEP [3] and on BSEP [4] was < 50% in each case. The inhibition at 1 h, 10 μM against BSEP [1], against BSEP [2], against BSEP [3] and against BSEP [4] was < 50% each time.

For `Cc1c(C)c2c(c(C)c1O)CCC(C)(COc1ccc(CC3SC(=O)NC3=O)cc1)O2` (stereo not shown) [Troglitazone, troglitazone], the inhibition at 1 h, 1 μM at BSEP [1] (setting [5]) is > 50%; at BSEP [2] (setting [6]), < 50%; at BSEP [3] (setting [6]) it was < 50%; on BSEP [4], > 50%. Moreover, the inhibition at 1 h, 10 μM is > 50% at BSEP [1] (setting [5]), > 50% against BSEP [2] (setting [6]), < 50% against BSEP [3] (setting [6]) and > 50% on BSEP [4].

On to `CC[C@]1(O)C[C@@H]2CN(CCc3c([nH]c4ccccc34)[C@@](C(=O)OC)(c3cc4c(cc3OC)N(C)[C@H]3[C@@](O)(C(=O)OC)[C@H](OC(C)=O)[C@]5(CC)C=CCN6CC[C@]43[C@@H]65)C2)C1` [Vinblastine, vinblastine], for which the inhibition at 1 h, 1 μM against BSEP [1] (setting [5]), against BSEP [2] (setting [6]), at BSEP [3] (setting [6]) and at BSEP [4] was < 50% each time. Moreover, the inhibition at 1 h, 10 μM is > 50% on BSEP [1] (setting [5]), < 50% at BSEP [2] (setting [6]), < 50% against BSEP [3] (setting [6]) and < 50% on BSEP [4].
